In patent US5292751A, “5,7-dihydroxy-2-methyl-8-(4-(3-hydroxy-1-(1-propyl))pip eridinyl)-4H-1-benzopyran-4-one, its preparation and its use” (priority 1991, dated 1994):
Read-outs that look alike come from different tables or passages of the source.

Tests used:
[1] = in vivo; type: in vivo; conditions: for potentiation of the secondary arthritic response: p.o. per day
Protocol: 2. Adjuvant induced arthritis (developing) in Rats
Female Charles Foster rats weighing 150-180 g were sorted into groups (10 rats/group). Each animal received 10 μl of 1% suspension of mycobacterium tuberculli in paraffin oil, intradermally, at the base of the tail. Drug treatment was instituted on the day of the induction of arthritis and continued for 21 days. The body weight of each rat was noted prior to the adjuvant suspension injection and subsequently all throughout for 21 days. Volumes of both hind paws were recorded on the day of injection and subsequently from 7 days onwards till the end of the experiment.

[2] = type: in vivo; conditions: for Therapeutic index (LD50 ED50): LD50 over carrageenin ED50
Protocol: 1. Acute inflammation model:
Systemic anti-inflammatory action on carrageenin-induced paw oedema in rats.
Male Charles Foster rats (120-150 g) were fasted for 18 hours, with water ad libitum. The test compound suspended in Tween^R 80 and 0.5% C.M.C. was administered orally. The control group received Tween 80 and 0.5% C.M.C. 0.05 ml of 0.5% carrageenin suspension was injected subcutaneously into the plantar region of the left hind paw. Using a Maclab differential volume meter, the paw volume was determined before the carrageenin injection and 3 and 6 hours after the injection. The percentage decrease in paw volume was calculated by the following equation: [formula] The ED50 value was calculated from the dose/response curve. Six animals were used for each group.

[3] = in vivo; conditions: po, rat
[4] = rat, p.o., carrageenin paw oedema, from dose/response curve

SMILES | deaths or toxic side effects ([1]; 30 mg/kg, p.o./day, 21 days) | inhibition of adjuvant arthritis ([1]; 1.25, 2.5, 5 and 10 mg/kg/day, p.o., 21 days) | therapeutic index, comparison in words ([2]; compared with compounds B and C) | ED50, mg/kg p.o. [2, 4] | Therapeutic index (LD50 ED50) ([2]; rat, p.o.) | LD50 [3] | potentiation of the secondary arthritic response ([1]; 3 mg/kg) | potentiation of the secondary arthritic response ([1]; 9 mg/kg) | symptoms of cytotoxicity ([1]; 18 mg/kg, p.o./day) | inhibition of adjuvant arthritis ([1]; 18 mg/kg, p.o./day, may be due to toxicity) | response in adjuvant arthritis ([1]; 3, 9, 18 and 27 mg/kg/day p.o., 21 days) | therapeutic range ([1]; p.o., daily dosing) | ED50, mg/kg p.o. ([2]; po) | inhibition of adjuvant arthritis ([1]; 0.1, 1 and 10 mg/kg, p.o., 21 days) | mortality ([1]; rat, in vivo, po, 10 mg/kg/day, 10 mg/kg, p.o./day, between 9th and 11th day of administration)
CCCN1CC[C@H](c2c(O)cc(O)c3c(=O)cc(C)oc23)[C@H](O)C1 (single isomer, unassigned) [Compound A] | No deaths or toxic side effects were observed | dose-dependent and significant inhibition | favourable therapeutic index over compounds B and C | 20.0 mg/kg | 32.5 | 650 mg/kg | – | – | – | – | – | – | – | – | –
Cc1cc(=O)c2c(O)cc(O)c(C3CCN(C)CC3O)c2o1 (stereo not drawn) [Compound B] | – | – | – | – | – | – | 58.6% | 64.9% | weight loss and severe diarrhoea | significant inhibition | biphasic response | narrow therapeutic range | 9.0 mg/kg | – | –
CN1CCC(c2c(O)cc(O)c3c(=O)cc(-c4ccccc4)oc23)C(O)C1 (stereo not drawn) [Compound C] | – | – | – | 1.3 mg/kg | 20.76 | 27 mg/kg | – | – | – | – | – | – | – | No inhibition of adjuvant arthritis was seen at any of the doses tested | 50%
